pEC50, pIC50: −log10 of the molar value.

Assay [1] addresses T1, HCV NS3/4A protease complex (UniProt P27958, C1454S/C1711G, species not given).
T1 construct: fused on or other part: Three-lysine solubilising tail at the C-terminus of NS4A
Put plainly: Recombinant HCV NS3/4A protease complex FRET peptide assay (strain not stated). The format is biochemical. The settings on record: NS3/4A protease enzyme assay, read-out: Activity Range IC50. From the text:
The purpose of this in vitro assay was to measure the inhibition of HCV NS3 protease complexes, derived from the BMS strain, H77 strain or J416S strain, as described below, by compounds of the present invention. This assay provides an indication of how effective compounds of the present invention would be in inhibiting HCV proteolytic activity.
Serum from an HCV-infected patient was obtained from Dr. T. Wright, San Francisco Hospital. An engineered full-length cDNA (compliment deoxyribonucleic acid) template of the HCV genome (BMS strain) was constructed from DNA fragments obtained by reverse transcription-PCR (RT-PCR) of serum RNA (ribonucleic acid) and using primers selected on the basis of homology between other genotype 1a strains. From the determination of the entire genome sequence, a genotype 1a was assigned to the HCV isolate according to the classification of Simmonds et al. (See P Simmonds, K A Rose, S Graham, S W Chan, F McOmish, B C Dow, E A Follett, P L Yap and H Marsden, J. Clin. Microbiol., 31(6), 1493–1503 (1993)). […] The infectious clones, H77 (1a genotype) and J4L6S (1b genotype) were obtained from R. Purcell (NIH) and the sequences are published in Genbank (AAB67036, see Yanagi, M., Purcell, R. H., Emerson, S. U. and Bukh, J. Proc. Natl. Acad. Sci. U.S.A. 94(16), 8738–8743 (1997); AF054247, see Yanagi, M., St Claire, M., Shapiro, M., Emerson, S. U., Purcell, R. H. and Bukh, J, Virology 244 (1), 161–172. (1998)).
The H77 and J4L6S strains were used for production of recombinant NS3/4A protease complexes. DNA encoding the recombinant HCV NS3/4A protease complex (amino acids 1027 to 1711) for these strains were manipulated as described by P. Gallinari et al. (see Gallinari P, Paolini C, Brennan D, Nardi C, Steinkuhler C, De Francesco R. Biochemistry. 38(17):5620–32, (1999)). Briefly, a three-lysine solubilizing tail was added at the 3′-end of the NS4A coding region. The cysteine in the P1 position of the NS4A–NS4B cleavage site (amino acid 1711) was changed to a glycine to avoid the proteolytic cleavage of the lysine tag. Furthermore, a cysteine to serine mutation was introduced by PCR at amino acid position 1454 to prevent the autolytic cleavage in the NS3 helicase domain. The variant DNA fragment was cloned in the pET21b bacterial expression vector (Novagen) and the NS3/4A complex was expressed in Escherichia. coli strain BL21 (DE3) (Invitrogen) following the protocol described by P. Gallinari et al. (see Gallinari P, Brennan D, Nardi C, Brunetti M, Tomei L, Steinkuhler C, De Francesco R., J Virol. 72(8):6758–69 (1998)) with modifications. Briefly, the NS3/4A protease complex expression was induced with 0.5 millimolar (mM) Isopropyl β-D-1-thiogalactopyranoside (IPTG) for 22 hours (h) at 20° C. A typical fermentation (1 Liter (L)) yielded approximately 10 grams (g) of wet cell paste. The cells were resuspended in lysis buffer (10 mL/g) consisting of 25 mM N-(2-Hydroxyethyl)Piperazine-N′-(2-Ethane Sulfonic acid) (HEPES), pH 7.5, 20% glycerol, 500 mM Sodium Chloride (NaCl), 0.5% Triton X-100, 1 microgram/milliliter (“μg/mL”) lysozyme, 5 mM Magnesium Chloride (MgCl2), 1 μg/ml Dnasel, 5 mM β-Mercaptoethanol (βME), Protease inhibitor—Ethylenediamine Tetraacetic acid (EDTA) free (Roche), homogenized and incubated for 20 minutes (min) at 4° C. The homogenate was sonicated and clarified by ultra-centrifugation at 235000 g for 1 h at 4° C. Imidazole was added to the supernatant to a final concentration of 15 mM and the pH adjusted to 8.0. The crude protein extract was loaded on a Nickel—Nitrilotriacetic acid (Ni-NTA) column pre-equilibrated with buffer B (25 mM HEPES, pH 8.0, 20% glycerol, 500 mM NaCl, 0.5% Triton X-100, 15 mM imidazole, 5 mM βME). The sample was loaded at a flow rate of 1 mL/min. The column was washed with 15 column volumes of buffer C (same as buffer B except with 0.2% Triton X-100). The protein was eluted with 5 column volumes of buffer D (same as buffer C except with 200 mM Imidazole). […]

In assay [2] the test system is HCV replicon in Huh7 cells. The experiment in a line: HCV replicon cell-based assay (FRET). Further details: species or system HCV strain 1b. The settings on record: Hepatitis C virus, Huh-7, 96 h, 4 days, read-out: Activity Range EC50. The source says: An HCV replicon whole cell system was established as described by Lohmann V, Korner F, Koch J, Herian U, Theilmann L, Bartenschlager R., Science 285(5424):110–3 (1999). This system enabled us to evaluate the effects of our HCV Protease compounds on HCV RNA replication. Briefly, using the HCV strain 1b sequence described in the Lohmann paper (Assession number:AJ238799), an HCV cDNA was generated encoding the 5′ internal ribosome entry site (IRES), the neomycin resistance gene, the EMCV (encephalomyocarditis viurs)-IRES and the HCV nonstructural proteins, NS3–NS5B, and 3′ non-translated region (NTR). In vitro transcripts of the cDNA were transfected into the human hepatoma cell line, Huh7. […] Resulting cell lines were characterized for positive and negative strand RNA production and protein production over time.
Huh7 cells, constitutively expressing the HCV replicon, were grown in Dulbecco's Modified Eagle Media (DMEM) containing 10% Fetal calf serum (FCS) and 1 mg/ml G418 (Gibco-BRL). Cells were seeded the night before (1.5×10^4 cells/well) in 96-well tissue-culture sterile plates. Compound and no compound controls were prepared in DMEM containing 4% FCS, 1:100 Penicillin/Streptomysin, 1:100 L-glutamine and 5% DMSO in the dilution plate (0.5% DMSO final concentration in the assay). Compound/DMSO mixes were added to the cells and incubated for 4 days at 37° C. After 4 days, plates were rinsed thoroughly with Phosphate-Buffered Saline (PBS) (3 times 150 μl). The cells were lysed with 25 μl of a lysis assay reagent containing the FRET peptide (RET S1, as described for the in vitro enzyme assay). The lysis assay reagent was made from 5× cell Luciferase cell culture lysis reagent (Promega #E153A) diluted to 1× with distilled water, NaCl added to 150 mM final, the FRET peptide diluted to 10 μM final from a 2 mM stock in 100% DMSO. The plate was then placed into the Cytofluor 4000 instrument which had been set to 340 nm excitation/490 nm emission, automatic mode for 21 cycles and the plate read in a kinetic mode. EC50 determinations were carried out as described for the IC50 determinations. […]
The percentage inhibition was calculated using the formula below: […]
The values were graphed and analyzed using XLFit to obtain the EC50 value.
(In general: Replicon systems follow genome replication, usually without infectious particles.)

For `C=CC1C[C@]1(NC(=O)[C@@H]1C[C@@H](Oc2cc(-c3ccccc3)nc3cc(OC)ccc23)CN1C(=O)[C@@H](NC(=O)OC)C(C)(C)C)C(=O)NS(=O)(=O)N(C)C` (some centres unmarked) [Compound 3], in assay [1], the negative-log IC50 (pIC50) (in general, the IC50 on a negative log10 scale, so that one unit is a factor of ten) is greater than 6.82. The negative logarithm of the EC50 (pEC50) (as a rule, the negative decadic logarithm of the EC50, by convention in mol/L) in assay [2] was greater than 6.82.
Take `C=CC1C[C@]1(NC(=O)[C@@H]1C[C@@H](Oc2cc(-c3ccccc3)nc3cc(OC)ccc23)CN1C(=O)[C@@H](NC(=O)OC)C(C)(C)C)C(=O)NS(=O)(=O)N(C)c1ccccc1` (some centres unmarked) [Compound 5]: in assay [1], the negative logarithm of the IC50 (pIC50) is greater than 6.82. For the same compound, in assay [2], the pEC50 is greater than 6.82.
Turning to `C=CC1C[C@]1(NC(=O)[C@@H]1C[C@@H](Oc2cc(-c3ccccc3)nc3cc(OC)ccc23)CN1C(=O)[C@@H](NC(=O)OC)C(C)(C)C)C(=O)NS(=O)(=O)N1CCCCO1` (some centres unmarked) [Compound 11], in assay [1], the negative logarithm of the IC50 (pIC50) is 5.82 to 6.82. In addition, the negative logarithm of the EC50 (pEC50) in assay [2] is less than 5.82.
The matching figures for `C=CC1CC1(NC(=O)[C@@H]1C[C@@H](Oc2cc(-c3ccccc3)nc3cc(OC)ccc23)CN1C(=O)[C@@H](NC(=O)OC)C(C)(C)C)C(=O)NS(=O)(=O)N1CCCC1` (mixture of isomers) [Compound 8]: greater than 6.82 and 5.82 to 6.82.
Turning to `C=CC1C[C@]1(NC(=O)[C@@H]1C[C@@H](Oc2nccc3ccccc23)CN1C(=O)[C@@H](NC(=O)OC(C)(C)C)C(C)(C)C)C(=O)NS(=O)(=O)N(C)C(C)C` (some centres unmarked) [Compound 22], the negative logarithm of the IC50 (pIC50) in assay [1] was 5.82 to 6.82.
Take `C=CC1C[C@]1(NC(=O)[C@@H]1C[C@@H](Oc2cc(-c3ccccc3)nc3cc(OC)ccc23)CN1C(=O)[C@@H](NC(=O)OC(C)(C)C)C(C)(C)C)C(=O)NS(=O)(=O)N(C)CC` (some centres unmarked) [Compound 14]: the pIC50 in assay [1] was greater than 6.82. Besides, the negative-log EC50 (pEC50) in assay [2] was greater than 6.82.
For the compound `C=CC1C[C@]1(NC(=O)[C@@H]1C[C@@H](Oc2cc(-c3ccccc3)nc3cc(OC)ccc23)CN1C(=O)[C@@H](NC(=O)OC)C(C)(C)C)C(=O)NS(=O)(=O)N1CCN(C)CC1` (some centres unmarked) [Compound 13], the pIC50 in assay [1] was 5.82 to 6.82. The pEC50 in assay [2] is less than 5.82.
The matching figures for `C=CC1C[C@]1(NC(=O)[C@@H]1C[C@@H](Oc2cc(-c3ccccc3)nc3cc(OC)ccc23)CN1C(=O)[C@@H](NC(=O)OC)C(C)(C)C)C(=O)NS(=O)(=O)N1CCCCC1` (some centres unmarked) [Compound 10]: greater than 6.82 and 5.82 to 6.82.
The matching figures for `C=CC1C[C@]1(NC(=O)[C@@H]1C[C@@H](Oc2cc(-c3ccccc3)nc3cc(OC)ccc23)CN1C(=O)[C@@H](NC(=O)OC)C(C)(C)C)C(=O)NS(=O)(=O)N(C)OC` (some centres unmarked) [Compound 2]: greater than 6.82 and 5.82 to 6.82.
The matching figures for `C=CC1C[C@]1(NC(=O)[C@@H]1C[C@@H](Oc2cc(-c3ccccc3)nc3cc(OC)ccc23)CN1C(=O)[C@@H](NC(=O)OC)C(C)(C)C)C(=O)NS(=O)(=O)N1CCC1` (some centres unmarked) [Compound 4]: greater than 6.82 and 5.82 to 6.82.
As to `C=CC1C[C@]1(NC(=O)[C@@H]1C[C@@H](Oc2cc(-c3ccccc3)nc3cc(OC)ccc23)CN1C(=O)[C@@H](NC(=O)OC)C(C)(C)C)C(=O)NS(=O)(=O)N(C)CC` (some centres unmarked) [Compound 1], in assay [1], the pIC50 is greater than 6.82. The pEC50 in assay [2] was greater than 6.82.
Consider `C=CC1C[C@]1(NC(=O)[C@@H]1C[C@@H](Oc2nccc3cc(OC)ccc23)CN1C(=O)[C@@H](NC(=O)OC(C)(C)C)C(C)(C)C)C(=O)NS(=O)(=O)N(C)C` (some centres unmarked) [Compound 17], for which the pIC50 in assay [1] is greater than 6.82. In assay [2], the negative logarithm of the EC50 (pEC50) is 5.82 to 6.82.
The matching figures for `C=CC1C[C@]1(NC(=O)[C@@H]1C[C@@H](Oc2nccc3cc(OC)ccc23)CN1C(=O)[C@@H](NC(=O)OC(C)(C)C)C(C)(C)C)C(=O)NS(=O)(=O)N(C)c1ccccc1` (some centres unmarked) [Compound 20]: greater than 6.82 and greater than 6.82.
Take `C=CC1C[C@]1(NC(=O)[C@@H]1C[C@@H](Oc2nccc3cc(OC)ccc23)CN1C(=O)[C@@H](NC(=O)OC(C)(C)C)C(C)(C)C)C(=O)NS(=O)(=O)N(C)CC` (some centres unmarked) [Compound 19]: the pIC50 in assay [1] was greater than 6.82. Moreover, the pEC50 in assay [2] is greater than 6.82.
For the compound `C=CC1C[C@]1(NC(=O)[C@@H]1C[C@@H](Oc2nc(-c3ccncc3)cc3ccccc23)CN1C(=O)[C@@H](NC(=O)OC(C)(C)C)C(C)(C)C)C(=O)NS(=O)(=O)N(C)C` (some centres unmarked) [Compound 23], the negative-log IC50 (pIC50) in assay [1] is greater than 6.82. Also, the pEC50 in assay [2] was greater than 6.82.
`C=CC1C[C@]1(NC(=O)[C@@H]1C[C@@H](Oc2cc(-c3ccccc3)nc3cc(OC)ccc23)CN1C(=O)[C@@H](NC(=O)OC(C)(C)C)C(C)(C)C)C(=O)NS(=O)(=O)N(C)C` (some centres unmarked) [Compound 15]: the pIC50 in assay [1] is greater than 6.82. Moreover, the pEC50 in assay [2] is greater than 6.82.
Turning to `C=CC1C[C@]1(NC(=O)[C@@H]1C[C@@H](Oc2cc(-c3ccccc3)nc3cc(OC)ccc23)CN1C(=O)[C@@H](NC(=O)OC)C(C)(C)C)C(=O)NS(=O)(=O)N1CCCC1` (some centres unmarked) [Compound 6], the pIC50 in assay [1] is greater than 6.82. The negative-log EC50 (pEC50) in assay [2] was 5.82 to 6.82.
For `C=CC1C[C@]1(NC(=O)[C@@H]1C[C@@H](Oc2cc(-c3ccccc3)nc3cc(OC)ccc23)CN1C(=O)[C@@H](NC(=O)OC(C)(C)C)C(C)(C)C)C(=O)NS(=O)(=O)N(C)c1ccccc1` (some centres unmarked) [Compound 16], the negative logarithm of the IC50 (pIC50) in assay [1] was greater than 6.82. The pEC50 in assay [2] is greater than 6.82.
Consider `C=CC1C[C@]1(NC(=O)[C@@H]1C[C@@H](Oc2nccc3cc(OC)ccc23)CN1C(=O)[C@@H](NC(=O)OC(C)(C)C)C(C)(C)C)C(=O)NS(=O)(=O)N(C)C(C)C` (some centres unmarked) [Compound 21], for which the pIC50 in assay [1] is 5.82 to 6.82. Besides, the pEC50 in assay [2] is 5.82 to 6.82.
As to `C=CC1C[C@]1(NC(=O)[C@@H]1C[C@@H](Oc2cc(-c3ccccc3)nc3cc(OC)ccc23)CN1C(=O)[C@@H](NC(=O)OC)C(C)(C)C)C(=O)NS(=O)(=O)N1CCOCC1` (some centres unmarked) [Compound 12], in assay [1], the negative-log IC50 (pIC50) is 5.82 to 6.82.
